Reference: patent US20230241071A1, “COMBINATION TREATMENT OF LIVER DISORDERS” (Terns Pharmaceuticals, Inc., priority 2021, published 2023)
Where two headings read alike, the source gives them in different places.

Legend:
[1] = pH and solubilizer effect on solubility; assay type: physicochemical; settings: potassium salt; for solubility at 24 h: 25 °C, thermodynamic from solid
Experimental: Solubility of compound 2 (potassium salt) was evaluated at various pH levels.

[2] = Multiple ascending doses of Compound 2 in healthy subjects with elevated LDL-c; assay type: in vivo, human; settings: 1, 3, 6, 10 mg QD 14 days
Experimental: Healthy volunteers with mildly elevated LDL-c were randomized 3:1 to Compound 2 (n=6) or placebo (n=2). Volunteers randomized to Compound 2 received multiple doses of 1, 3, 6 or 10 mg of Compound 2 once daily for 14 days in the MAD cohort of the study.

THR-β = target: T1, THR-β (Homo sapiens, UniProt P10828); assay: Agonistic activity toward the thyroxine receptor beta; assay type: biochemical
T1 sequence (P10828 1-461): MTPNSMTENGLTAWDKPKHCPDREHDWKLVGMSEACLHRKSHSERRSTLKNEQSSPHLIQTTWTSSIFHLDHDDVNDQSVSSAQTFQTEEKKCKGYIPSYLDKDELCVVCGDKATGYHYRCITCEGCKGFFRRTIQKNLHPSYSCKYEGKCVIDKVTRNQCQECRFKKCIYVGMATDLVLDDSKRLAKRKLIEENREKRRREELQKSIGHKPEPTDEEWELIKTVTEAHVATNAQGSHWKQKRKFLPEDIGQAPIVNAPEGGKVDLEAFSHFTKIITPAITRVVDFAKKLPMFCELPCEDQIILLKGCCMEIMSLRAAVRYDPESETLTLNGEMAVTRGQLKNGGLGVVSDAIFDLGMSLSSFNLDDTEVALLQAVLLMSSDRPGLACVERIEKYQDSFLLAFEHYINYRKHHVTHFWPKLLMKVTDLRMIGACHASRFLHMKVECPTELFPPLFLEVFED

[3] = Multiple-ascending dose trial of Compound 2 in healthy participants; assay type: in vivo, human; settings: for Cmax / AUC / half-life: human, plasma, oral; for AUC: read-out: AUCtau (mean); for half-life: read-out: t1/2 (median) (converted)
Experimental: A multiple-ascending dose clinical trial of Compound 2 was performed.
Compound 2 plasma and urine concentrations were determined using validated liquid chromatography-tandem mass spectrometry assay.
Plasma samples for Compound 2 concentration and PK sampling were collected pre-dose and at 0.5, 1, 2, 3, 4, 6, 8, 12, and 24 hours after the first dose, at pre-dose on Days 3, 4, 5, 8, 11, and 13 of dosing, and at pre-dose and at 0.5, 1, 2, 3, 4, 6, 8, 12, 24, 48, and 72 hours after 14 days of administration of study medication (placebo or compound). (See Table 16, FIG. 17) PK parameters were estimated via noncompartmental methods using Phoenix® WinNonlin® (Certara, LP, Princeton, N.J.). Concentrations of serum pharmacodynamic (PD) biomarkers apolipoprotein B (Apo B) and sex hormone binding globulin (SHBG) were measured using an immunoassay and serum lipids were determined using spectrophotometry.
PD sampling was also performed. Percent change from baseline for PD markers were calculated using an ANCOVA model with percent change from baseline as dependent variable, treatment group as fixed effect, and baseline as covariate. Analyses used observed data only without imputation for missing data.

N#Cc1nn(-c2cc(Cl)c(Oc3n[nH]c(=O)c4ccccc34)c(Cl)c2)c(=O)[nH]c1=O [Compound 2, 2-(3,5-dichloro-4-((4-oxo-3,4-dihydrophthalazin-1-yl)oxy)phenyl)-3,5-dioxo-2,3,4,5-tetrahydro-1,2,4-triazine-6-carbonitrile]
solubility at 24 h ([1]; 0.1N HCl with 2 wt % SLS, aqueous with cosolvent or surfactant or cyclodextrin, 0.1N HCl, with 2 wt % SLS): 5.7 µg/mL | solubility at 24 h ([1]; 0.1N HCl, simulated gastric fluid, without 2 wt % SLS): < 0.03 µg/mL | solubility at 24 h ([1]; pH 2.0 buffer with 2 wt % SLS, pH 2, aqueous with cosolvent or surfactant or cyclodextrin, pH 2.0 buffer, with 2 wt % SLS): 5.5 µg/mL | solubility at 24 h ([1]; pH 2.0 buffer, pH 2, aqueous buffer, without 2 wt % SLS): < 0.07 µg/mL | solubility at 24 h ([1]; pH 4.0 buffer with 2 wt % SLS, pH 4, aqueous with cosolvent or surfactant or cyclodextrin, pH 4.0 buffer, with 2 wt % SLS): 10 µg/mL | solubility at 24 h ([1]; pH 4.0 buffer, pH 4, aqueous buffer, without 2 wt % SLS): < 0.07 µg/mL | solubility at 24 h ([1]; pH 6.0 buffer with 2 wt % SLS, pH 6, aqueous with cosolvent or surfactant or cyclodextrin, pH 6.0 buffer, with 2 wt % SLS): 42.3 µg/mL | solubility at 24 h ([1]; pH 6.0 buffer, pH 6, aqueous buffer, without 2 wt % SLS): 2.2 µg/mL | solubility at 24 h ([1]; pH 8.0 buffer with 2 wt % SLS, pH 8, aqueous with cosolvent or surfactant or cyclodextrin, pH 8.0 buffer, with 2 wt % SLS): 302 µg/mL | solubility at 24 h ([1]; pH 8.0 buffer, pH 8, aqueous buffer, without 2 wt % SLS): 10.8 µg/mL | solubility at 24 h ([1]; pH 10.0 buffer with 2 wt % SLS, pH 10, aqueous with cosolvent or surfactant or cyclodextrin, pH 10.0 buffer, with 2 wt % SLS): 308 µg/mL | solubility at 24 h ([1]; pH 10.0 buffer, pH 10, aqueous buffer, without 2 wt % SLS): 10.2 µg/mL | Solubility ([1]; pH 10.0 buffer, 24 h, with 2 wt % SLS, 25° C.): 308.2 µg/mL | PK dose proportionality and variability [2]: dose-proportional PK with low variability | SHBG [2]: increased SHBG | circulating atherogenic lipid levels (LDL-c, Apo B, total cholesterol, triglycerides) [2]: significant decreases | free T4 [2]: Dose-dependent declines | safety and tolerability [2]: generally safe and well-tolerated | subjects with ALT increase to ≥2×ULN [2]: No subject | EC50 (THR-β): 1750 nM | AEs by relationship to drug: Not related ([3]; 3 mg QD 14 days (N = 6)): 1 (16.7%) n (%) | AEs by relationship to drug: Possibly related ([3]; 3 mg QD 14 days (N = 6)): 0 n (%) | AEs by relationship to drug: Related ([3]; 3 mg QD 14 days (N = 6)): 0 n (%) | AEs by relationship to drug: Unlikely related ([3]; 3 mg QD 14 days (N = 6)): 0 n (%) | Subject incidence: Any AE, all CTCAE grades ([3]; 3 mg QD 14 days (N = 6)): 1 (16.7%) n (%) | Subject incidence: Grade 1 AEs ([3]; 3 mg QD 14 days (N = 6)): 1 (16.7%) n (%) | Subject incidence: Grade 2 or higher AEs ([3]; 3 mg QD 14 days (N = 6)): 0 n (%) | Subject incidence: Serious AEs ([3]; 3 mg QD 14 days (N = 6)): 0 n (%) | AEs by relationship to drug: Not related ([3]; 6 mg QD 14 days (N = 6)): 0 n (%) | AEs by relationship to drug: Possibly related ([3]; 6 mg QD 14 days (N = 6)): 1 (16.7%) n (%) | AEs by relationship to drug: Related ([3]; 6 mg QD 14 days (N = 6)): 0 n (%) | AEs by relationship to drug: Unlikely related ([3]; 6 mg QD 14 days (N = 6)): 0 n (%) | Subject incidence: Any AE, all CTCAE grades ([3]; 6 mg QD 14 days (N = 6)): 1 (16.7%) n (%) | Subject incidence: Grade 1 AEs ([3]; 6 mg QD 14 days (N = 6)): 1 (16.7%) n (%) | Subject incidence: Grade 2 or higher AEs ([3]; 6 mg QD 14 days (N = 6)): 0 n (%) | Subject incidence: Serious AEs ([3]; 6 mg QD 14 days (N = 6)): 0 n (%) | AEs by relationship to drug: Not related ([3]; 10 mg QD 14 days (N = 6)): 2 (33.3%) n (%) | AEs by relationship to drug: Possibly related ([3]; 10 mg QD 14 days (N = 6)): 0 n (%) | AEs by relationship to drug: Related ([3]; 10 mg QD 14 days (N = 6)): 0 n (%) | AEs by relationship to drug: Unlikely related ([3]; 10 mg QD 14 days (N = 6)): 0 n (%) | Subject incidence: Any AE, all CTCAE grades ([3]; 10 mg QD 14 days (N = 6)): 2 (33.3%) n (%) | Subject incidence: Grade 1 AEs ([3]; 10 mg QD 14 days (N = 6)): 2 (33.3%) n (%) | Subject incidence: Grade 2 or higher AEs ([3]; 10 mg QD 14 days (N = 6)): 0 n (%) | Subject incidence: Serious AEs ([3]; 10 mg QD 14 days (N = 6)): 0 n (%) | Ctau (mean) ([3]; Day 14, 1 mg QD): 25.7 ng/mL | Ctau (mean) ([3]; Day 14, 3 mg QD): 77.9 ng/mL | Ctau (mean) ([3]; Day 14, 6 mg QD): 175 ng/mL | Ctau (mean) ([3]; Day 14, 10 mg QD): 196 ng/mL | GGT ([3]; QD 14 days): Dose-dependent GGT increases | TSH or free T3 ([3]; QD 14 days): without clear change | free T4 ([3]; QD 14 days): declined in dose-dependent fashion | free testosterone levels ([3]; QD 14 days): no significant change | heart rate and blood pressure ([3]; QD 14 days): remained stable | mean ALT values ([3]; QD 14 days): not significantly different from placebo | oral bioavailability and PK variability ([3]; QD 14 days): good oral bioavailability with low PK variability | total testosterone ([3]; QD 14 days): Dose-dependent total testosterone increases | safety and tolerability ([3]; QD 14 days, up to 10 mg): well-tolerated | HDL-c ([3]; day 15): did not significantly change | total cholesterol, LDL-c, Apo B, and triglycerides ([3]; day 15, 10 mg dose cohort): significant reductions | Cmax ([3]; Day 14, 1 mg QD): 80.3 ng/mL | AUC ([3]; Day 14, 1 mg QD): 1090 ng·h/mL | half-life ([3]; Day 14, 1 mg QD): 19.5 h | Cmax ([3]; Day 14, 3 mg QD): 291 ng/mL | AUC ([3]; Day 14, 3 mg QD): 3600 ng·h/mL | half-life ([3]; Day 14, 3 mg QD): 16 h | Cmax ([3]; Day 14, 6 mg QD): 699 ng/mL | AUC ([3]; Day 14, 6 mg QD): 8310 ng·h/mL | half-life ([3]; Day 14, 6 mg QD): 15.8 h | Cmax ([3]; Day 14, 10 mg QD): 996 ng/mL | AUC ([3]; Day 14, 10 mg QD): 10600 ng·h/mL | half-life ([3]; Day 14, 10 mg QD): 15.4 h | SHBG ([3]; multiple doses, even at 3 mg QD): significant and dose-dependent increases
